Reference: the supplement of paper PMC12137928
Structures can show the parent of a compound that is named as a salt.

How the values were obtained:
HCT116 [1] = conditions: 72 h
Procedure, shortened: (§1)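 Four-parameter Hill fits gave IC50 and maximal efficacy. The data were CellTiter-Glo luminescence readings in HCT116 cells, normalized so that vehicle was 0% and positive control was -100%, with pattern correction afterwards.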

HCT116 [2] = assay: efficacy (maximum % inhibition of viability vs DMSO); higher = more cytotoxic; conditions: 72 h
Procedure, shortened: as §1

IC50 cell viability (HCT116 [1]; ICRF193 0 nM)	IC50 cell viability (HCT116 [1]; ICRF193 200 nM)	SMILES	efficacy (HCT116 [2]; ICRF193 0 nM)	efficacy (HCT116 [2]; ICRF193 200 nM)
29.1 µM	8.2 µM	O=c1[nH]c(=O)n([C@H]2C[C@H](O)[C@@H](CO)O2)cc1C(F)(F)F [Trifluridine]	49.1%	59%
1.16 µM	0.92 µM	COc1cc(NCc2ccc3nc(N)nc(N)c3c2C)cc(OC)c1OC [Trimetrexate]	102%	90.7%
29.1 µM	20.6 µM	N[C@@H]1[C@H]2CN(c3nc4c(cc3F)c(=O)c(C(=O)O)cn4-c3ccc(F)cc3F)C[C@@H]12 [Trovafloxacin mesylate]	52.4%	65.3%
> 45.8 µM	18.3 µM	CC[C@H]1OC(=O)C[C@@H](OC(C)=O)[C@H](C)[C@@H](O[C@@H]2O[C@H](C)[C@@H](O[C@H]3C[C@@](C)(O)[C@@H](OC(=O)CC(C)C)[C@H](C)O3)[C@H](N(C)C)[C@H]2O)[C@@H](CC=O)C[C@@H](C)C(=O)/C=C/C(C)=C/[C@@H]1CO[C@@H]1O[C@H](C)[C@@H](O)[C@@H](OC)[C@H]1OC [Tylvalosin]	–	53.7%
> 45.8 µM	18.3 µM	CCCCCCCC(=O)CC[C@@H]1[C@@H](C/C=C\CCCC(=O)OC(C)C)[C@@H](O)C[C@H]1O [Unoprostone isopropyl ester]	–	42.2%
> 45.8 µM	29.1 µM	CCCCC(=O)O [Valeric acid]	–	62%
3.66 µM	2.31 µM	CCCCC(=O)OCC(=O)[C@]1(O)Cc2c(O)c3c(c(O)c2[C@@H](O[C@H]2C[C@H](NC(=O)C(F)(F)F)[C@H](O)[C@H](C)O2)C1)C(=O)c1c(OC)cccc1C3=O [Valrubicin]	90.1%	97.8%
> 45.8 µM	29.1 µM	c1cnc2cc3c(cc2n1)[C@@H]1CNC[C@H]3C1 [Varenicline tartrate]	–	80.4%
0.082 µM	0.058 µM	CC[C@]1(O)C[C@@H]2CN(CCc3c([nH]c4ccccc34)[C@@](C(=O)OC)(c3cc4c(cc3OC)N(C)[C@H]3[C@@](O)(C(=O)OC)[C@H](OC(C)=O)[C@]5(CC)C=CCN6CC[C@]43[C@@H]65)C2)C1 [Vinblastine sulfate]	75.8%	82.2%
0.164 µM	0.183 µM	CC[C@]1(O)C[C@H]2CN(CCc3c([nH]c4ccccc34)[C@@](C(=O)OC)(c3cc4c(cc3OC)N(C=O)[C@H]3[C@@](O)(C(=O)OC)[C@H](OC(C)=O)[C@]5(CC)C=CCN6CC[C@]43[C@@H]65)C2)C1 [Vincristine]	70.2%	63.5%
0.058 µM	0.058 µM	CC[C@]1(O)C[C@@H]2CN(CCc3c([nH]c4ccccc34)[C@@](C(=O)OC)(c3cc4c(cc3OC)N(C)[C@H]3[C@@](O)(C(N)=O)[C@H](O)[C@]5(CC)C=CCN6CC[C@]43[C@@H]65)C2)C1 [Vindesine sulfate salt]	75.5%	69.2%
0.73 µM	> 45.8 µM	CC[C@]12C=CCN3CC[C@@]4(c5cc([C@@]6(C(=O)OC)C[C@@H]7C[C@@H](C(C)(F)F)CN(Cc8c6[nH]c6ccccc86)C7)c(OC)cc5N(C)[C@H]4[C@@](O)(C(=O)OC)[C@@H]1OC(C)=O)[C@@H]32 [Vinflunine (Tartrate)]	60.1%	–
0.0651 µM	0.058 µM	CCC1=C[C@@H]2CN(C1)Cc1c([nH]c3ccccc13)[C@@](C(=O)OC)(c1cc3c(cc1OC)N(C)[C@H]1[C@@](O)(C(=O)OC)[C@H](OC(C)=O)[C@]4(CC)C=CCN5CC[C@]31[C@@H]54)C2 [Vinorelbine tartrate]	64.9%	72.3%
3.66 µM	2.31 µM	O=C(CCCCCCC(=O)Nc1ccccc1)NO [Vorinostat (SAHA)]	109%	101%
23.1 µM	20.6 µM	O[C@@H](COc1cccc2ncccc12)CN1CCN([C@@H]2c3ccccc3[C@@H]3[C@H](c4ccccc42)C3(F)F)CC1 [Zosuquidar trihydrochloride]	141%	105%
25.9 µM	16.4 µM	OCCN1CCN(CC/C=C2/c3ccccc3Sc3ccc(C(F)(F)F)cc32)CC1 [cis-Flupentixol]	119%	102%

The remaining lines, values behind:

SMILES	IC50 cell viability (HCT116 [1]; ICRF193 0 nM)	IC50 cell viability (HCT116 [1]; ICRF193 200 nM)	efficacy (HCT116 [2]; ICRF193 0 nM)	efficacy (HCT116 [2]; ICRF193 200 nM)
CCSc1ccc2c(c1)N(CCCN1CCN(C)CC1)c1ccccc1S2 [Thiethylperazine dimalate]	29.1 µM	20.6 µM	102%	101%
OC[C@H]1O[C@@H](n2cnc3c(S)ncnc32)[C@H](O)[C@@H]1O [Thioinosine]	3.26 µM	3.66 µM	95.1%	93.2%
CN1CCN(CCCN2c3ccccc3Sc3ccc(S(=O)(=O)N(C)C)cc32)CC1 [Thioproperazine dimethanesulfonate]	> 45.8 µM	20.6 µM	–	46.2%
CSc1ccc2c(c1)N(CCC1CCCCN1C)c1ccccc1S2 (configuration not stated) [Thioridazine]	23.1 µM	18.3 µM	115%	95%
C=C(NC(=O)C(=C)NC(=O)c1csc(C2=N[C@@H]3c4csc(n4)[C@H]4NC(=O)c5csc(n5)[C@H]([C@](C)(O)[C@@H](C)O)NC(=O)[C@H]5CSC(=N5)/C(=C/C)NC(=O)[C@H]([C@@H](C)O)NC(=O)c5csc(n5)[C@]3(CC2)NC(=O)[C@H](C)NC(=O)C(=C)NC(=O)[C@H](C)NC(=O)[C@H]([C@@H](C)CC)N[C@@H]2C=Cc3c([C@H](C)O)cc(nc3[C@H]2O)C(=O)O[C@@H]4C)n1)C(N)=O [Thiostrepton]	> 45.8 µM	5.17 µM	–	58.6%
CN(C)C(=S)SSC(=S)N(C)C [Thiram]	> 45.8 µM	29.1 µM	–	82.8%
CCCCCCCCCCCCCCCC[N+](C)(C)CCN(Cc1ccc(OC)cc1)c1ncccn1 [Thonzonium bromide]	18.3 µM	4.61 µM	120%	89.7%
CCCSc1nc(N[C@@H]2C[C@H]2c2ccc(F)c(F)c2)c2nnn([C@@H]3C[C@H](OCCO)[C@@H](O)[C@H]3O)c2n1 [Ticagrelor]	29.1 µM	18.3 µM	77.1%	92.6%
O=C(CCCN1CCC(n2c(=S)[nH]c3ccccc32)CC1)c1ccc(F)cc1 [Timiperone]	> 45.8 µM	18.3 µM	–	46.1%
Clc1ccc(C(Cn2ccnc2)OCc2ccsc2Cl)c(Cl)c1 (configuration not stated) [Tioconazole]	20.6 µM	18.3 µM	102%	91.7%
Cn1cncc1[C@@](N)(c1ccc(Cl)cc1)c1ccc2c(c1)c(-c1cccc(Cl)c1)cc(=O)n2C [Tipifarnib]	20.6 µM	23.1 µM	118%	126%
CC(C)C(=O)OCc1cccc(OC(=O)[C@@H]2N3C(=O)[C@@H](NC(=O)Cc4ccccc4)[C@H]3SC2(C)C)c1 [Tobicillin]	29.1 µM	29.1 µM	122%	103%
Cc1[nH]c(/C=C2\C(=O)Nc3ccc(F)cc32)c(C)c1C(=O)NCCN1CCCC1 [Toceranib]	8.96 µM	8.96 µM	102%	94.9%
Cc1ccc(C(=O)c2cc(O)c(O)c([N+](=O)[O-])c2)cc1 [Tolcapone]	> 45.8 µM	29.1 µM	–	84.9%
Cc1cc(-n2c(=O)[nH]c(=O)n(C)c2=O)ccc1Oc1ccc(S(=O)(=O)C(F)(F)F)cc1 [Toltrazuril (sulfone)]	7.3 µM	> 45.8 µM	44.9%	–
CC[C@@]1(O)C(=O)OCc2c1cc1n(c2=O)Cc2cc3c(CN(C)C)c(O)ccc3nc2-1 [Topotecan hydrochloride]	0.73 µM	0.206 µM	94.2%	102%
CN(C)CCOc1ccc(/C(=C(/CCCl)c2ccccc2)c2ccccc2)cc1 [Toremifene citrate]	20.6 µM	29.1 µM	128%	104%
COc1cc2c(cc1O)CCN[C@]21CS[C@@H]2c3c(OC(C)=O)c(C)c4c(c3[C@H](COC1=O)N1[C@@H]2[C@H]2c3c(cc(C)c(OC)c3O)C[C@@H]([C@@H]1O)N2C)OCO4 [Trabectedin]	0.0119 µM	0.00473 µM	57.2%	74.4%
CC(=O)Nc1cccc(-n2c(=O)n(C3CC3)c(=O)c3c(Nc4ccc(I)cc4F)n(C)c(=O)c(C)c32)c1 [Trametinib]	0.259 µM	0.0206 µM	92.3%	82.8%
CC(C)OC(=O)CCC/C=C\C[C@@H]1[C@@H](/C=C/[C@@H](O)COc2cccc(C(F)(F)F)c2)[C@H](O)C[C@@H]1O [Travoprost]	14.6 µM	20.6 µM	87.4%	96.5%
Nc1nc(N)c2nc(-c3ccccc3)c(N)nc2n1 [Triamterene]	29.1 µM	29.1 µM	95.4%	92.7%
CCOC1O[C@H]([C@@H](COCc2ccccc2)OCc2ccccc2)[C@H](OCc2ccccc2)[C@H]1O (some centres not stated) [Tribenoside]	29.1 µM	18.3 µM	106%	92.1%
O=C(Nc1ccc(Cl)cc1)Nc1ccc(Cl)c(Cl)c1 [Triclocarban]	18.3 µM	13 µM	102%	104%
Oc1cc(Cl)ccc1Oc1ccc(Cl)cc1Cl [Triclosan]	16.4 µM	18.3 µM	92.5%	95.2%
CC(CN(C)C)CN1c2ccccc2Sc2ccc(C(F)(F)F)cc21 (configuration not stated) [Trifluomeprazine 2-butenedioate]	16.4 µM	18.3 µM	40.2%	49.5%
[O-][n+]1ccccc1[S-].[O-][n+]1ccccc1[S-].[Zn+2] [Zinc pyrithione]	4.61 µM	2.06 µM	107%	102%
